Data as given in the supplement of paper PMC9265050, “Inhibition of RNA Binding in SND1 Increases the Levels of miR-1-3p and Sensitizes Cancer Cells to Navitoclax” (Cancers, 2022).

Tested on: SW480
Assay: drug sensitivity score (DSS, integrated dose-response area); higher = more sensitive (stronger viability reduction); extreme values may be limits of the assay
How it was run: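 SW480 cells stably carrying doxycycline-inducible control or SND1-targeting shRNA were treated with 0.1 µg/mL doxycycline for 7 days. Cells were then seeded at 1000 per well into 384-well plates containing 525 commercially available small-molecule inhibitors at five concentrations, and viability was measured with CellTiter-Glo after 72 h. The drug sensitivity score integrates the area under a fitted non-linear dose–response model.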

[1] = shRNA: SND1 shRNA1 (SND1 silenced)
[2] = shRNA: SND1 shRNA2 (SND1 silenced)
[3] = shRNA: control shRNA (non-targeting)

Row | Compound | drug sensitivity score [1] | drug sensitivity score [2] | drug sensitivity score [3]
1 | NC1(c2ccc(-c3nc4ccn5c(=O)[nH]nc5c4cc3-c3ccccc3)cc2)CCC1 [MK-2206] | 3.5 DSS | 4.4 DSS | 3.6 DSS
2 | CN(C[C@@H]1COCCO1)S(=O)(=O)Nc1ccc2ccc3ncc(-c4cnn(C)c4)cc3c(=O)c2c1 [MK-2461] | 0.6 DSS | 0 DSS | 0.3 DSS
3 | O=C(c1cccc(Cl)c1F)N1CCN(Cc2cccc(Nc3nccs3)n2)CC1 [MK-8745] | 1.7 DSS |  | 1.9 DSS
4 | Cn1cc(-c2cnn3c(N)c(Br)c([C@@H]4CCCNC4)nc23)cn1 [MK-8776] | 0.9 DSS | 0.1 DSS | 2.2 DSS
5 | Cc1cnc(-c2ccccc2C(C)C)nc1NCc1ccc(-n2ccnn2)cc1 [ML323] | 0 DSS | 1.4 DSS | 4.4 DSS
6 | CC(C)n1nc(-c2ccc3oc(N)nc3c2)c2c(N)ncnc21 [MLN-0128] | 14 DSS | 12.3 DSS | 9.8 DSS
7 | O=C(O)c1ccc(Nc2ncc3c(n2)-c2ccc(Cl)cc2C(c2c(F)cccc2F)=NC3)cc1 [MLN-8054] | 6.3 DSS |  | 6.5 DSS
8 | O=C(Nc1cccc(NC(=O)c2cccc(O)c2O)c1)c1cccc(O)c1O [MST-312] | 7.6 DSS | 5.2 DSS | 8.2 DSS
9 | CNC(=O)[C@@H](NC(=O)[C@H](CC(C)C)[C@H](O)C(=O)NO)C(C)(C)C [Marimastat] | 0 DSS | 0 DSS | 0 DSS
10 | Cc1ccc(NC(=O)c2ccc(CN3CCN(C)CC3)cc2)cc1Nc1nc(-c2cccnc2)cs1 [Masitinib] | 3.1 DSS | 3.4 DSS | 4.6 DSS
11 | CC(=O)O[C@]1(C(C)=O)CC[C@H]2[C@@H]3C=C(C)C4=CC(=O)CC[C@]4(C)[C@H]3CC[C@@]21C [Megestrol acetate] | 0 DSS | 0 DSS | 0 DSS
12 | N[C@@H](Cc1ccc(N(CCCl)CCCl)cc1)C(=O)O [Melphalan] | 0 DSS |  | 0 DSS
13 | CCN(CC)CCCC(C)Nc1c2ccc(Cl)cc2nc2ccc(OC)cc12 (stereo unspecified) [Mepacrine] | 21.5 DSS |  | 21.5 DSS
14 | S=c1[nH]cnc2nc[nH]c12 [Mercaptopurine] | 9.7 DSS | 5.3 DSS | 6.3 DSS
15 | Cc1ccc(C(=O)Nc2ccc(Oc3cc4cnn(C)c4cc3-c3cn[nH]c3)c(F)c2)c(=O)n1-c1ccc(F)cc1 [Merestinib] | 4.5 DSS | 5.4 DSS | 4.3 DSS
16 | CN(C)C(=N)NC(=N)N [Metformin] | 0 DSS |  | 1 DSS
17 | CN(Cc1cnc2nc(N)nc(N)c2n1)c1ccc(C(=O)N[C@@H](CCC(=O)O)C(=O)O)cc1 [Methotrexate] | 11.7 DSS |  | 7.4 DSS
18 | C[C@H]1C[C@@H]2[C@H]([C@@H](O)C[C@@]3(C)[C@H]2CC[C@]3(O)C(=O)CO)[C@@]2(C)C=CC(=O)C=C12 [Methylprednisolone] | 0 DSS | 1.4 DSS | 0 DSS
19 | CO[C@@H]1[C@H](N(C)C(=O)c2ccccc2)C[C@H]2O[C@]1(C)n1c3ccccc3c3c4c(c5c6ccccc6n2c5c31)C(=O)NC4 [Midostaurin] | 14.3 DSS | 14.7 DSS | 14.5 DSS
20 | CNC(=O)c1nn(C)c2c1C(C)(C)Cc1cnc(Nc3ccc(N4CCN(C)CC4)cc3)nc1-2 [Milciclib] | 11.4 DSS | 10.9 DSS | 9.2 DSS
21 | CO[C@@]12[C@H](COC(N)=O)C3=C(C(=O)C(C)=C(N)C3=O)N1C[C@@H]1N[C@@H]12 [Mitomycin C] | 2.7 DSS | 2.1 DSS | 1 DSS
22 | Clc1ccc(C(c2ccccc2Cl)C(Cl)Cl)cc1 (stereo unspecified) [Mitotane] | 0 DSS | 0 DSS | 0 DSS
23 | O=C1c2c(O)ccc(O)c2C(=O)c2c(NCCNCCO)ccc(NCCNCCO)c21 [Mitoxantrone] | 1.9 DSS | 0.3 DSS | 0.8 DSS
24 | Nc1ccccc1NC(=O)c1ccc(CNc2nccc(-c3cccnc3)n2)cc1 [Mocetinostat] | 10.2 DSS | 6.1 DSS | 7.8 DSS
25 | N#CCNC(=O)c1ccc(-c2ccnc(Nc3ccc(N4CCOCC4)cc3)n2)cc1 [Momelotinib] | 3.8 DSS | 2.1 DSS | 1.9 DSS

Row | Compound | drug sensitivity score [1] | drug sensitivity score [2] | drug sensitivity score [3]
26 | CC1(C)CNc2cc(NC(=O)c3cccnc3NCc3ccncc3)ccc21 [Motesanib] | 0 DSS | 0.4 DSS | 0 DSS
27 | FC(F)(F)c1ccc(/C=C/c2nc(COc3ccc(CCCCn4ccnn4)cc3)co2)cc1 [Mubritinib] | 3.8 DSS | 9.3 DSS | 5.5 DSS
28 | Cc1cc(OCc2nnc(SC3CCCC3)n2-c2cccnc2)ccc1-c1ccc(S(C)(=O)=O)cc1 [NMS-873] | 9.5 DSS | 10.5 DSS | 9 DSS
29 | CCN1CCN(Cc2ccc(-c3cc4c(N[C@H](C)c5ccccc5)ncnc4[nH]3)cc2)CC1 [NVP-AEE788] | 1.5 DSS | 1.3 DSS | 2.8 DSS
30 | CCN1CCN(c2ccc(Nc3cc(N(C)C(=O)Nc4c(Cl)c(OC)cc(OC)c4Cl)ncn3)cc2)CC1 [NVP-BGJ398] | 0 DSS | 0 DSS | 0 DSS
31 | COc1ccc(-c2ccc3ncc4c(c3c2)n(-c2ccc(N3CCNCC3)c(C(F)(F)F)c2)c(=O)n4C)cn1 [NVP-BGT226] | 18.6 DSS | 20.6 DSS | 19 DSS
32 | CNC(=O)c1ccc(-c2cnc3ncc(Cc4ccc5ncccc5c4)n3n2)cc1F [NVP-INC280] | 0 DSS | 5.7 DSS | 5.8 DSS
33 | CC1(C)CCC(c2ccc(Cl)cc2)=C(CN2CCN(c3ccc(C(=O)NS(=O)(=O)c4ccc(N[C@H](CCN5CCOCC5)CSc5ccccc5)c(S(=O)(=O)C(F)(F)F)c4)cc3)CC2)C1 [Navitoclax] | 7.4 DSS | 5.6 DSS | 0 DSS
34 | COc1nc(N)nc2c1ncn2[C@@H]1O[C@H](CO)[C@@H](O)[C@@H]1O [Nelarabine] | 0 DSS | 0 DSS | 0 DSS
35 | CCOc1cc2ncc(C#N)c(Nc3ccc(OCc4ccccn4)c(Cl)c3)c2cc1NC(=O)/C=C/CN(C)C [Neratinib] | 3.9 DSS | 4.3 DSS | 4 DSS
36 | Cc1cn(-c2cc(NC(=O)c3ccc(C)c(Nc4nccc(-c5cccnc5)n4)c3)cc(C(F)(F)F)c2)cn1 [Nilotinib] | 2.6 DSS | 3.8 DSS | 1.6 DSS
37 | CC1(C)NC(=O)N(c2ccc([N+](=O)[O-])c(C(F)(F)F)c2)C1=O [Nilutamide] | 0 DSS | 0 DSS | 0 DSS
38 | COC(=O)c1ccc2c(c1)NC(=O)/C2=C(\Nc1ccc(N(C)C(=O)CN2CCN(C)CC2)cc1)c1ccccc1 [Nintedanib] | 8.4 DSS | 6.8 DSS | 0 DSS
39 | NC(=O)c1cccc2cn(-c3ccc([C@@H]4CCCNC4)cc3)nc12 [Niraparib] | 3.3 DSS | 1.1 DSS | 4.9 DSS
40 | COc1ccc(C2=N[C@@H](c3ccc(Cl)cc3)[C@@H](c3ccc(Cl)cc3)N2C(=O)N2CCNC(=O)C2)c(OC(C)C)c1 [Nutlin-3] | 0 DSS | 0 DSS | 0.2 DSS
41 | COc1cccc2cc(-c3nc([C@H]4CC[C@H](C(=O)O)CC4)n4ncnc(N)c34)[nH]c12 [OSI-027] | 5.4 DSS | 7.1 DSS | 2.5 DSS
42 | O=C(Nc1ccc(OC(F)(F)F)cc1)c1sccc1NCc1ccnc2ccccc12 [OSI-930] | 1.8 DSS | 6.5 DSS | 6.3 DSS
43 | CC(=O)c1cnc2ccc(-c3cc(Cl)c(O)c(Cl)c3)nc2c1N[C@H]1CC[C@H](CN(C)C)CC1 [OTSSP167] | 9.8 DSS | 8.7 DSS | 10.6 DSS
44 | Cc1sc2c(c1C)C(c1ccc(Cl)cc1)=N[C@@H](CC(=O)Nc1ccc(O)cc1)c1nnc(C)n1-2 [OTX015] | 1.9 DSS | 0.8 DSS | 0.7 DSS
45 | COC1=CC(c2cc3ccccc3[nH]2)=N/C1=C\c1[nH]c(C)cc1C [Obatoclax] | 2.5 DSS | 0 DSS | 0.1 DSS
46 | O=C(c1cc(Cc2n[nH]c(=O)c3ccccc23)ccc1F)N1CCN(C(=O)C2CC2)CC1 [Olaparib] | 2.7 DSS | 0 DSS | 0 DSS
47 | COC(=O)C[C@](O)(CCCC(C)(C)O)C(=O)O[C@@H]1C(OC)=C[C@]23CCCN2CCc2cc4c(cc2[C@H]13)OCO4 [Omacetaxine] | 21.9 DSS | 23.5 DSS | 23.3 DSS
48 | COc1ncc(-c2ccc3nccc(-c4ccnnc4)c3c2)cc1NS(=O)(=O)c1ccc(F)cc1F [Omipalisib] | 13.7 DSS | 12.4 DSS | 9.7 DSS
49 | CC(C)c1cc(C(=O)N2Cc3ccc(CN4CCN(C)CC4)cc3C2)c(O)cc1O [Onalespib] | 11.3 DSS | 9.4 DSS | 13.8 DSS
